Reference: PMC6120666 (The EMBO Journal, 2018)

How the values were obtained:
[1] = biological target: T1, proteins of U2OS cell lysate (Homo sapiens, UniProt O43809); assay: Drug affinity chromatography with c-ponatinib and LC-MS/MS (ponatinib interactome); type: binding; settings: NUDT21, Cleavage and polyadenylation specificity factor subunit 5
T1 construct: Proteins enriched by c-ponatinib from U2OS cell lysate; endogenous in cells; host or cells: U2OS cell lysate
Summary of the method: (§1)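 Proteins were identified by nano-UPLC–MS/MS after elution with formic acid and trypsin digestion. They were captured from U2OS lysate (2 mg protein per pulldown, NP-40 buffer) on amine-coupled NHS beads during a 2 h incubation at 4 °C.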

[2] = biological target: T2, proteins of U2OS cell lysate (Homo sapiens, UniProt P08559); assay: as above; type: binding; settings: PDHA1, Pyruvate dehydrogenase E1 component subunit alpha, somatic form, mitochondrial
T2 construct: Proteins enriched by c-ponatinib from U2OS cell lysate; endogenous in cells; host or cells: U2OS cell lysate
Summary of the method: as §1

[3] = biological target: T3, proteins of U2OS cell lysate (Homo sapiens, UniProt P11021); assay: as above; type: binding; settings: HSPA5, 78 kDa glucose-regulated protein
T3 construct: Proteins enriched by c-ponatinib from U2OS cell lysate; endogenous in cells; host or cells: U2OS cell lysate
T3 sequence (P11021 19-654): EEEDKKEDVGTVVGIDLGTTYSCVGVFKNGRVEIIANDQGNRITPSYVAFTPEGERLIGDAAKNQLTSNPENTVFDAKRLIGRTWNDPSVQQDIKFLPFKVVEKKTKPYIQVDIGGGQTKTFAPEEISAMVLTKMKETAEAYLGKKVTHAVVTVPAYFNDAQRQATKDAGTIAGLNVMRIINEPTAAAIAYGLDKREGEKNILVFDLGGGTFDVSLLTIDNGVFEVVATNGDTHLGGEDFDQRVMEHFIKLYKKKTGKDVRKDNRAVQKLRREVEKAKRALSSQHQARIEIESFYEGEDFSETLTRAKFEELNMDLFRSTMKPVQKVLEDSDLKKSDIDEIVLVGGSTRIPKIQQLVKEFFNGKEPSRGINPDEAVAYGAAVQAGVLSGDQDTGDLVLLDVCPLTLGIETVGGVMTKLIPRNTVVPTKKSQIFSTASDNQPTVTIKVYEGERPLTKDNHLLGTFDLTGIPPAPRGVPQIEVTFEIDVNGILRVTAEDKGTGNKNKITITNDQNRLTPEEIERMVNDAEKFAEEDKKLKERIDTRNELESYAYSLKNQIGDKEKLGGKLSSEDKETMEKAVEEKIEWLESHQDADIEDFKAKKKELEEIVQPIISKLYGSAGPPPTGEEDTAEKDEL
Summary of the method: as §1

[4] = biological target: T4, proteins of U2OS cell lysate (Homo sapiens, UniProt P23284); assay: as above; type: binding; settings: PPIB, Peptidyl-prolyl cis-trans isomerase B
T4 construct: Proteins enriched by c-ponatinib from U2OS cell lysate; endogenous in cells; host or cells: U2OS cell lysate
T4 sequence (P23284 34-216): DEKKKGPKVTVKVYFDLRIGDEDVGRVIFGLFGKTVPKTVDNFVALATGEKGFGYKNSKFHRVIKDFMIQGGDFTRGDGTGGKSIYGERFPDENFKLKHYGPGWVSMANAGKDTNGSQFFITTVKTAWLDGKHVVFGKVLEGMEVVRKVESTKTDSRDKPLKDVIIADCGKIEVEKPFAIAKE
Summary of the method: as §1

[5] = biological target: T5, proteins of U2OS cell lysate (Homo sapiens, UniProt P24534); assay: as above; type: binding; settings: EEF1B2, Elongation factor 1-beta
T5 construct: Proteins enriched by c-ponatinib from U2OS cell lysate; endogenous in cells; host or cells: U2OS cell lysate
Summary of the method: as §1

[6] = biological target: T6, proteins of U2OS cell lysate (Homo sapiens, UniProt P27816); assay: as above; type: binding; settings: MAP4, Microtubule-associated protein 4
T6 construct: Proteins enriched by c-ponatinib from U2OS cell lysate; endogenous in cells; host or cells: U2OS cell lysate
Summary of the method: as §1

[7] = biological target: T7, proteins of U2OS cell lysate (Homo sapiens, UniProt P40939); assay: as above; type: binding; settings: HADHA, Trifunctional enzyme subunit alpha, mitochondrial
T7 construct: Proteins enriched by c-ponatinib from U2OS cell lysate; endogenous in cells; host or cells: U2OS cell lysate
T7 sequence (P40939 37-763): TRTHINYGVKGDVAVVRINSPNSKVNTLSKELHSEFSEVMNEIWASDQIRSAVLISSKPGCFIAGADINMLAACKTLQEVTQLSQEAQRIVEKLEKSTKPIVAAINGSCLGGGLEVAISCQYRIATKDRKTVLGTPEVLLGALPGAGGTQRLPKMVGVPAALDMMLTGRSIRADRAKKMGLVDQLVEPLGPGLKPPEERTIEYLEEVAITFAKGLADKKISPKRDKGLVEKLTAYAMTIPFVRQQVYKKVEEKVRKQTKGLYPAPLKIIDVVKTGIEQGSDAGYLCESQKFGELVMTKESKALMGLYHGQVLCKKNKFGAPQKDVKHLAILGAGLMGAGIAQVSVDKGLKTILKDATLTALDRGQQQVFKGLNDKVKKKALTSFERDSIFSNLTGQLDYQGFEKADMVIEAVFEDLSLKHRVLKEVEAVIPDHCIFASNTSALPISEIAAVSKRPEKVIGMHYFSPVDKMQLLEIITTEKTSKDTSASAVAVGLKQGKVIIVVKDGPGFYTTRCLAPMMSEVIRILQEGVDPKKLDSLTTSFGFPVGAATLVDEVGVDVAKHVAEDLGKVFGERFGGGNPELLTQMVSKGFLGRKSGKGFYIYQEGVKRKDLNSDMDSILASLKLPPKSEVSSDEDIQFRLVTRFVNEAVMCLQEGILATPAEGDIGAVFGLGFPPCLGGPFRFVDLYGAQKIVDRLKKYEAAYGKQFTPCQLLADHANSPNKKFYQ
Summary of the method: as §1

[8] = biological target: T8, proteins of U2OS cell lysate (Homo sapiens, UniProt P49336); assay: as above; type: binding; settings: CDK8, Cyclin-dependent kinase 8
T8 construct: Proteins enriched by c-ponatinib from U2OS cell lysate; endogenous in cells; host or cells: U2OS cell lysate
T8 sequence (P49336 whole entry): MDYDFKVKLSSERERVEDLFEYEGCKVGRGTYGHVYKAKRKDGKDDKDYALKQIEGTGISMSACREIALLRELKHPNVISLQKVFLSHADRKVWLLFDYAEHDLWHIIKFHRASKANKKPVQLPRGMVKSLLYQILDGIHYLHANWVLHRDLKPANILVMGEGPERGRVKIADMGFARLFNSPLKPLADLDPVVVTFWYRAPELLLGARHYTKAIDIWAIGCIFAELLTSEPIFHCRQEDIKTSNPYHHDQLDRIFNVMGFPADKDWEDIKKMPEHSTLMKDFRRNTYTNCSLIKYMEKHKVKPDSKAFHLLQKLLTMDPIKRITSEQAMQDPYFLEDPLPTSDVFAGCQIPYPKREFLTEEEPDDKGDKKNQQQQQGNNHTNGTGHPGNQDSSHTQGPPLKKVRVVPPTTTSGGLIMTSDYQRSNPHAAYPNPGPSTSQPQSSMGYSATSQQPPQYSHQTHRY
Summary of the method: as §1

[9] = biological target: T9, proteins of U2OS cell lysate (Homo sapiens, UniProt P49773); assay: as above; type: binding; settings: HINT1, Histidine triad nucleotide-binding protein 1
T9 construct: Proteins enriched by c-ponatinib from U2OS cell lysate; endogenous in cells; host or cells: U2OS cell lysate
T9 sequence (P49773 whole entry): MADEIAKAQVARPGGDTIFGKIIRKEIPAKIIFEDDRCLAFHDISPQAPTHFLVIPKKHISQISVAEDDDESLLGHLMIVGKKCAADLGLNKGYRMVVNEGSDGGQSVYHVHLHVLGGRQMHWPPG
Summary of the method: as §1

[10] = biological target: T10, proteins of U2OS cell lysate (Homo sapiens, UniProt P51617); assay: as above; type: binding; settings: IRAK1, Interleukin-1 receptor-associated kinase 1
T10 construct: Proteins enriched by c-ponatinib from U2OS cell lysate; endogenous in cells; host or cells: U2OS cell lysate
T10 sequence (P51617 whole entry): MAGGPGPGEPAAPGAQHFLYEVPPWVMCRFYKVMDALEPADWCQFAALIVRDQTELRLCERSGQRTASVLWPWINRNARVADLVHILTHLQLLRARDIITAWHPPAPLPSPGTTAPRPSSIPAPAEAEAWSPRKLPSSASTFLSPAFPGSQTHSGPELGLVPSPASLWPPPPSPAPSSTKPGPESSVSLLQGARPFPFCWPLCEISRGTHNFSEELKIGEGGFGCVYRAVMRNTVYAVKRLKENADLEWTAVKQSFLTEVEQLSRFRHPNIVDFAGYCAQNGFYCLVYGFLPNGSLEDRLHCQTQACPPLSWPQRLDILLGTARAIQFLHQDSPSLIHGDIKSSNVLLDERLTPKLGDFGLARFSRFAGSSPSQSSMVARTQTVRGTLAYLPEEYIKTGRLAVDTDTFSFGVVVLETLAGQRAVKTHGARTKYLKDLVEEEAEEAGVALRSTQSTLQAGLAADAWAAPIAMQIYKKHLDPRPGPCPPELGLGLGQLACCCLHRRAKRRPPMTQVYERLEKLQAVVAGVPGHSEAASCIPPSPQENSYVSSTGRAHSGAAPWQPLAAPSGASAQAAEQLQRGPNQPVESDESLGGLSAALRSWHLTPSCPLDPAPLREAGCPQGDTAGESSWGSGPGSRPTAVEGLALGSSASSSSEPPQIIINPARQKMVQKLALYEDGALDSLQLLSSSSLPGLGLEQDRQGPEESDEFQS
Summary of the method: as §1

[11] = biological target: T11, proteins of U2OS cell lysate (Homo sapiens, UniProt P55072); assay: as above; type: binding; settings: VCP, Transitional endoplasmic reticulum ATPase
T11 construct: Proteins enriched by c-ponatinib from U2OS cell lysate; endogenous in cells; host or cells: U2OS cell lysate
T11 sequence (P55072 whole entry): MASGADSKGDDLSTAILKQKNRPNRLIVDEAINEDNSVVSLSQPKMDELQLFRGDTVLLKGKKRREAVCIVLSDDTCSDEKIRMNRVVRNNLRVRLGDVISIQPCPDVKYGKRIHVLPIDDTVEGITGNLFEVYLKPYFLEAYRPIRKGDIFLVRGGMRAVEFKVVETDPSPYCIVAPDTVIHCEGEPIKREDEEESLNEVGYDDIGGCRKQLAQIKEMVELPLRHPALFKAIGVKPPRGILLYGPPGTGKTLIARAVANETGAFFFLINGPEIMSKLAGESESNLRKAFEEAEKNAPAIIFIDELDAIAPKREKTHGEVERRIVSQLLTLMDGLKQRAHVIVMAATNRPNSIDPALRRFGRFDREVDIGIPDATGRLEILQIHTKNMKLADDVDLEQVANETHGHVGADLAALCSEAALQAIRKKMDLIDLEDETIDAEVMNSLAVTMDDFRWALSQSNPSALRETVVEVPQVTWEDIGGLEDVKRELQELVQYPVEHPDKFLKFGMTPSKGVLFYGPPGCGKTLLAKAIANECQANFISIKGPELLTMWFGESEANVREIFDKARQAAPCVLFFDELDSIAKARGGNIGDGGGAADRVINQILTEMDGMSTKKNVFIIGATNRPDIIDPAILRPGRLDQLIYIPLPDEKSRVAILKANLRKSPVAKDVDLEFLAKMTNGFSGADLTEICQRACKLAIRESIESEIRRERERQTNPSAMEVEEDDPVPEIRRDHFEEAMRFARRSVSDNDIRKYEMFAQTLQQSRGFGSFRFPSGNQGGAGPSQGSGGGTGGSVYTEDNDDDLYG
Summary of the method: as §1

[12] = biological target: T12, proteins of U2OS cell lysate (Homo sapiens, UniProt Q69YQ0); assay: as above; type: binding; settings: SPECC1L, Cytospin-A
T12 construct: Proteins enriched by c-ponatinib from U2OS cell lysate; endogenous in cells; host or cells: U2OS cell lysate
T12 sequence (Q69YQ0 whole entry): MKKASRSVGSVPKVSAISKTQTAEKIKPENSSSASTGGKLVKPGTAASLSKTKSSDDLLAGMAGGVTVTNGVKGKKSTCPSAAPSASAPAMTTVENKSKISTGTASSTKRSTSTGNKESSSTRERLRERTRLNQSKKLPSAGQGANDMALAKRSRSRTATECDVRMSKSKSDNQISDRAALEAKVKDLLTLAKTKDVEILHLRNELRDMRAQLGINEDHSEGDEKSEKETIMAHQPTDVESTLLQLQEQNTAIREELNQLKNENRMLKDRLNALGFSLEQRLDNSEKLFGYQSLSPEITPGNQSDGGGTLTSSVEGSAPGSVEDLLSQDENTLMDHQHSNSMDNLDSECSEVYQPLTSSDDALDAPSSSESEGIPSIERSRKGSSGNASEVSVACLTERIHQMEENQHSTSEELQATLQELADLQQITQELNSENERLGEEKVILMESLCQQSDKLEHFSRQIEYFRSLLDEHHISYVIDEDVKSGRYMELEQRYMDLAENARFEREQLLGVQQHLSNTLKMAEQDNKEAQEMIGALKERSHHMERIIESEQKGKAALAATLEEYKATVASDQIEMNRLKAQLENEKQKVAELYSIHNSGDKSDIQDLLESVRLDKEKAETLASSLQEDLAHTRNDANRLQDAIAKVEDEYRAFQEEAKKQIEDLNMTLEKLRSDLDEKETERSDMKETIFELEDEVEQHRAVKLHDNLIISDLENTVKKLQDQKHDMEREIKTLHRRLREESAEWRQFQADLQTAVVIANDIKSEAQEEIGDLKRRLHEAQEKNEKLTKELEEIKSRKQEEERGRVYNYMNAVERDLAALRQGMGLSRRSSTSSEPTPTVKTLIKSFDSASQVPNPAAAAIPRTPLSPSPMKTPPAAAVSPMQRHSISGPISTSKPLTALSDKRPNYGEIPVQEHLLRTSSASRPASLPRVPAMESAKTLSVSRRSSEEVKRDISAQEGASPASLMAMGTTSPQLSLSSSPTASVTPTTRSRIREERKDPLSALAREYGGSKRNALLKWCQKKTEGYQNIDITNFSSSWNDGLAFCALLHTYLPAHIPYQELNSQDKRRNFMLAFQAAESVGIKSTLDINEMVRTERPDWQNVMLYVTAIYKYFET
Summary of the method: as §1

[13] = biological target: T13, proteins of U2OS cell lysate (Homo sapiens, UniProt Q92522); assay: as above; type: binding; settings: H1FX, Histone H1x
T13 construct: Proteins enriched by c-ponatinib from U2OS cell lysate; endogenous in cells; host or cells: U2OS cell lysate
T13 sequence (Q92522 whole entry): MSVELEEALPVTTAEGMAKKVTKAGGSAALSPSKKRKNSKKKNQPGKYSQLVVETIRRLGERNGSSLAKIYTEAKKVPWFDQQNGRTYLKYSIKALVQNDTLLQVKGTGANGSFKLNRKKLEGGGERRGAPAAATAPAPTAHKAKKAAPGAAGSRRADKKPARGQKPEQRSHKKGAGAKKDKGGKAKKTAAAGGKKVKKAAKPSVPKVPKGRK
Summary of the method: as §1

[14] = test system: C57Bl6/J mice; design: method as in Nachbur et al, 2015; settings: ref Nachbur et al, 2015; cited from earlier work

Row | Compound | Average LFQ PON_WT [1] | Average LFQ PON_WT [2] | Average LFQ PON_WT [3] | Average LFQ PON_WT [4] | Average LFQ PON_WT [5] | Average LFQ PON_WT [6] | Average LFQ PON_WT [7] | Average LFQ PON_WT [8] | Average LFQ PON_WT [9] | Average LFQ PON_WT [10] | Average LFQ PON_WT [11] | Average LFQ PON_WT [12] | Average LFQ PON_WT [13] | increase in serum levels of TNF in mice challenged with MDP [14]
1 | Cc1ccc(C(=O)Nc2ccc(CN3CCN(C)CC3)c(C(F)(F)F)c2)cc1C#Cc1cnc2cccnn12 [PON] | 20.8271 | 21.0192 | 23.5505 | 20.4971 | 23.7043 | 23.7532 | 23.258 | 23.7078 | 21.3958 | 23.3938 | 23.9947 | 20.8707 | 20.0616 | –
2 | Cc1ccc(-c2nn(C(C)(C)CNC(=O)c3ccncc3)c3ncnc(N)c23)cc1 [WEHI‐345, reference compound] | – | – | – | – | – | – | – | – | – | – | – | – | – | only partially inhibited
